Data set [1] can be described thus: Solubility in 100 mM glycylglycine buffer at pH 3.0 incubated for 18 hrs by UPLC analysis. It is filed as physicochemical.
In data set [2] the target is T1, Amylin receptor AMY3; CALCR/RAMP3 (Homo sapiens, UniProt O60896+P30988).
T1 sequence (P30988 whole entry): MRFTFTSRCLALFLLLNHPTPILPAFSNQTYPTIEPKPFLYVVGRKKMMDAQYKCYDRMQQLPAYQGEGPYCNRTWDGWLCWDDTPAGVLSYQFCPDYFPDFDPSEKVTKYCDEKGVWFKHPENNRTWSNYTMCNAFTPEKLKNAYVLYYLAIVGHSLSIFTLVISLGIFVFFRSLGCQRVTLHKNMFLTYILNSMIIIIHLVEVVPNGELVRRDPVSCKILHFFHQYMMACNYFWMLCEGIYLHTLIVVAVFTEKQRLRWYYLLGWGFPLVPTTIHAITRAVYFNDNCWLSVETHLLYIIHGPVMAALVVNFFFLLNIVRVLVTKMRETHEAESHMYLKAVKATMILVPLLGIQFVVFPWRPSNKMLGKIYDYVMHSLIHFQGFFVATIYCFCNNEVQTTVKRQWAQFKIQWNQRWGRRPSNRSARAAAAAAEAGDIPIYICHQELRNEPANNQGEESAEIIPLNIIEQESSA
T1 sequence (O60896 whole entry): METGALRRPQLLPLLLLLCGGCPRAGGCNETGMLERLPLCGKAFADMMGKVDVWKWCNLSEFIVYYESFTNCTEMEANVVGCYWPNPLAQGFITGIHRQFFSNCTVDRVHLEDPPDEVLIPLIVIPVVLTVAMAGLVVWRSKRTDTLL
Briefly: Agonist activity at human amylin receptor expressed in BHK570 cells co-expressing RAMP3 assessed as increase in intracellular cAMP concentration incubated for 3 hrs in presence of 10% FBS by CRE luciferase reporter gene assay. The format is functional, cell-based. Background: A reporter such as luciferase makes a cellular process visible.

A short description of data set [3]: Stability in pH 7.5 buffer assessed as lag time for fibril formation at 1 uM by Thioflavin T based fluorescence assay. It is filed as physicochemical. To be noted: pH 7.5, 1 µM.
A short description of data set [4]: Solubility in 100 mM bistrispropane buffer at pH 7.5 incubated for 18 hrs by UPLC analysis. The format is physicochemical.
Data set [5] in a line: Stability in pH 7.5 buffer assessed as compound recovery at 1 uM by Thioflavin T based fluorescence assay. The format is physicochemical. The note with it: read-out: Drug recovery.
Data set [6] can be described thus: Solubility in 100 mM bistrispropane buffer at pH 8.0 incubated for 18 hrs by UPLC analysis. It is filed as physicochemical.
For data set [7], the target named is T1, Amylin receptor AMY3; CALCR/RAMP3. Kind of data set: Agonist activity at human amylin receptor expressed in BHK570 cells co-expressing RAMP3 assessed as increase in intracellular cAMP concentration incubated for 3 hrs in absence of albumin by CRE luciferase reporter gene assay. The format is functional, cell-based.
Data set [8] is described as follows: Solubility in 100 mM glycylglycine buffer at pH 4.0 incubated for 18 hrs by UPLC analysis. It is filed as physicochemical.
The nature of data set [9]: Solubility in 100 mM bistrispropane buffer at pH 7.0 incubated for 18 hrs by UPLC analysis. It is filed as physicochemical.
Data set [10] is described as follows: Solubility in 100 mM bistrispropane buffer at pH 6.5 incubated for 18 hrs by UPLC analysis. It is filed as physicochemical.
The target of data set [11] is T2, Calcitonin receptor (Homo sapiens, UniProt P30988).
T2 sequence (P30988 whole entry): T1 sequence (P30988 whole entry)
Kind of data set: Agonist activity at human calcitonin receptor expressed in BHK570 cells assessed as increase in intracellular cAMP concentration incubated for 3 hrs in presence of 10% FBS by CRE luciferase reporter gene assay. The format is functional, cell-based.

Data set [12] is described as follows: Solubility in 100 mM bistrispropane buffer at pH 6.0 incubated for 18 hrs by UPLC analysis. The format is physicochemical.
The nature of data set [13]: Solubility in 100 mM glycylglycine buffer at pH 5.0 incubated for 18 hrs by UPLC analysis. It is filed as physicochemical.
The target in data set [14] is T2, Calcitonin receptor. Kind of data set: Agonist activity at human calcitonin receptor expressed in BHK570 cells assessed as increase in intracellular cAMP concentration incubated for 3 hrs in absence of albumin by CRE luciferase reporter gene assay. The format is functional, cell-based.
The target of data set [15] is T1, Amylin receptor AMY3; CALCR/RAMP3. Briefly: Displacement of [125I]-labeled rat amylin from human amylin receptor expressed in BHK tkts13 whole cells co-expressing RAMP3 incubated for 60 mins by scintillation proximity assay. It is filed as cell-based. Background: Loss of bound radioactivity is the signal in a displacement assay; it reports binding, not function.

Numbered stars: 1 amine (or outer) side, 2 acyl side, 3 side chain; on linkers, the order of the positions; unused ones are H or OH. Peptide text beside a SMILES is read from it. * marks the point of attachment. C20 diacid = O=C(O)CCCCCCCCCCCCCCCCCCC(=O)*; γGlu = O=C(O)[C@H](CCC(=O)[*:2])N[*:1]; AEEA = NCCOCCOCC(=O)O

The term solubility denotes the concentration that dissolves in the medium under given conditions. Low values mean a poorly soluble substance, high ones a readily soluble substance. A word on the EC50: it is the concentration that produces a half-maximal response. On to `CC(C)C[C@H](NC(=O)[C@H](CCCNC(=N)N)NC(=O)CNC(=O)[C@H](CC(C)C)NC(=O)[C@@H](NC(=O)[C@H](C)NC(=O)[C@@H](NC(=O)[C@H](CO)NC(=O)[C@H](CC(C)C)NC(=O)[C@H](CCC(N)=O)NC(=O)[C@H](CO)NC(=O)[C@H](C)NC(=O)CC[C@H](NC(=O)CCCCCCCCCCCCCCCCCCC(=O)O)C(=O)O)[C@@H](C)O)C(C)C)C(=O)N[C@@H](CO)C(=O)N[C@@H](CCC(N)=O)C(=O)N[C@@H](CCC(=O)O)C(=O)N[C@@H](CC(C)C)C(=O)N[C@@H](Cc1cnc[nH]1)C(=O)N[C@@H](CCC(=O)O)C(=O)N[C@@H](CC(C)C)C(=O)N[C@@H](CCC(N)=O)C(=O)N[C@H](C(=O)N[C@@H](Cc1ccc(O)cc1)C(=O)N1CCC[C@H]1C(=O)N[C@@H](CCCNC(=N)N)C(=O)N[C@H](C(=O)N[C@@H](CCC(=O)O)C(=O)N[C@H](C(=O)NCC(=O)N[C@@H](CO)C(=O)N[C@@H](CCC(N)=O)C(=O)N[C@H](C(=O)N[C@@H](Cc1ccc(O)cc1)C(N)=O)[C@@H](C)O)[C@@H](C)O)[C@@H](C)O)[C@@H](C)O` ({C20 diacid-γGlu}-ASQLSTAVLGRLSQELHELQTYPRTETGSQTY-NH2), for which the solubility at 18 h in data set [1], in data set [4], in data set [6], in [8], in data set [9] and in [10] was no less than 200 µM each time. In [12], this compound returned a solubility at 18 h of no less than 200 µM. Besides, the EC50 in data set [2] was 0.067 nM; in data set [7] it was 0.062 nM; on Calcitonin receptor [11], 0.036 nM. Moreover, the Time in [3] turned out to be 1 h. In addition, in data set [5], the remaining at 1 µM worked out at 16%.

`CC(C)C[C@H](NC(=O)[C@H](C)NC(=O)[C@H](C)NC(=O)[C@@H](NC(=O)[C@H](CO)NC(=O)[C@H](CC(C)C)NC(=O)[C@H](CCC(=O)O)NC(=O)[C@H](CO)NC(=O)[C@H](C)NC(=O)COCCOCCNC(=O)COCCOCCNC(=O)COCCOCCNC(=O)COCCOCCNC(=O)COCCOCCNC(=O)CC[C@H](NC(=O)CCCCCCCCCCCCCCCCCCC(=O)O)C(=O)O)[C@@H](C)O)C(=O)NCC(=O)N[C@@H](CCCNC(=N)N)C(=O)N[C@@H](CC(C)C)C(=O)N[C@@H](CO)C(=O)N[C@@H](C)C(=O)N[C@@H](CCC(=O)O)C(=O)N[C@@H](CC(C)C)C(=O)N[C@@H](Cc1cnc[nH]1)C(=O)N[C@@H](CCC(=O)O)C(=O)N[C@@H](CC(C)C)C(=O)N[C@@H](C)C(=O)N[C@H](C(=O)N[C@@H](CC(C)C)C(=O)N1CCC[C@H]1C(=O)N[C@@H](CCCNC(=N)N)C(=O)N[C@H](C(=O)N[C@@H](CCC(=O)O)C(=O)N[C@H](C(=O)NCC(=O)N[C@@H](CO)C(=O)NCC(=O)N[C@@H](CO)C(=O)N1CCC[C@H]1C(N)=O)[C@@H](C)O)[C@@H](C)O)[C@@H](C)O` ({C20 diacid-γGlu-AEEA-AEEA-AEEA-AEEA-AEEA}-ASELSTAALGRLSAELHELATLPRTETGSGSP-NH2): the solubility at 18 h in [1], in data set [4], in data set [13], in [6], in data set [8] and in [9] was no less than 200 µM each time. Further, the solubility at 18 h in data set [10] and in [12] was no less than 200 µM throughout. Further, the EC50 is 0.066 nM in data set [2], 0.015 nM in [7], 0.01 nM on Calcitonin receptor [14] and 0.027 nM at Calcitonin receptor [11]. Further, the Time in data set [3] was greater than 45 h. Also, the remaining at 1 µM in [5] was 100%.

In general, IC50 refers to the concentration at which inhibition is half-maximal. In the case of `CC(C)C[C@H](NC(=O)[C@H](C)NC(=O)[C@H](C)NC(=O)[C@@H](NC(=O)[C@H](CO)NC(=O)[C@H](CC(C)C)NC(=O)[C@H](CCC(=O)O)NC(=O)[C@H](CO)NC(=O)[C@H](C)NC(=O)CC[C@H](NC(=O)CCCCCCCCCCCCCCCCCCC(=O)O)C(=O)O)[C@@H](C)O)C(=O)NCC(=O)N[C@@H](CCCNC(=N)N)C(=O)N[C@@H](CC(C)C)C(=O)N[C@@H](CO)C(=O)N[C@@H](C)C(=O)N[C@@H](CCC(=O)O)C(=O)N[C@@H](CC(C)C)C(=O)N[C@@H](Cc1cnc[nH]1)C(=O)N[C@@H](CCC(=O)O)C(=O)N[C@@H](CC(C)C)C(=O)N[C@@H](C)C(=O)N[C@H](C(=O)N[C@@H](CC(C)C)C(=O)N1CCC[C@H]1C(=O)N[C@@H](CCCNC(=N)N)C(=O)N[C@H](C(=O)N[C@@H](CCC(=O)O)C(=O)N[C@H](C(=O)NCC(=O)N[C@@H](CO)C(=O)NCC(=O)N[C@@H](CO)C(=O)N[C@@H](Cc1ccccc1)C(N)=O)[C@@H](C)O)[C@@H](C)O)[C@@H](C)O` ({C20 diacid-γGlu}-ASELSTAALGRLSAELHELATLPRTETGSGSF-NH2), the solubility at 18 h in [1], in data set [4], in data set [6], in [8], in data set [9] and in data set [10] was no less than 200 µM in each case. Also, the solubility at 18 h in data set [12] is no less than 200 µM. Also, the EC50 in data set [2] was 0.094 nM; in [7], 0.05 nM; at Calcitonin receptor [14], 0.04 nM; at Calcitonin receptor [11], 0.073 nM. The Time in data set [3] was greater than 45 h. The remaining at 1 µM in [5] was found to be 100%. The IC50 in data set [15] was 1.36 nM.

On to `CC(C)C[C@H](NC(=O)[C@H](C)NC(=O)[C@H](C)NC(=O)[C@@H](NC(=O)[C@H](CO)NC(=O)[C@H](CC(C)C)NC(=O)[C@H](CCC(=O)O)NC(=O)[C@H](CO)NC(=O)[C@H](C)NC(=O)COCCOCCNC(=O)COCCOCCNC(=O)COCCOCCNC(=O)COCCOCCNC(=O)CC[C@H](NC(=O)CCCCCCCCCCCCCCCCCCC(=O)O)C(=O)O)[C@@H](C)O)C(=O)NCC(=O)N[C@@H](CCCNC(=N)N)C(=O)N[C@@H](CC(C)C)C(=O)N[C@@H](CO)C(=O)N[C@@H](C)C(=O)N[C@@H](CCC(=O)O)C(=O)N[C@@H](CC(C)C)C(=O)N[C@@H](Cc1cnc[nH]1)C(=O)N[C@@H](CCC(=O)O)C(=O)N[C@@H](CC(C)C)C(=O)N[C@@H](C)C(=O)N[C@H](C(=O)N[C@@H](CC(C)C)C(=O)N1CCC[C@H]1C(=O)N[C@@H](CCCNC(=N)N)C(=O)N[C@H](C(=O)N[C@@H](CCC(=O)O)C(=O)N[C@H](C(=O)NCC(=O)N[C@@H](CO)C(=O)NCC(=O)N[C@@H](CO)C(=O)N1CCC[C@H]1C(N)=O)[C@@H](C)O)[C@@H](C)O)[C@@H](C)O` ({C20 diacid-γGlu-AEEA-AEEA-AEEA-AEEA}-ASELSTAALGRLSAELHELATLPRTETGSGSP-NH2), for which the solubility at 18 h in data set [1], in data set [4], in [13], in data set [6], in data set [8] and in data set [9] was no less than 200 µM in each case. The solubility at 18 h in data set [10] and in data set [12] was no less than 200 µM throughout. Also, the results for the EC50 (in data set [2]; at Calcitonin receptor [14]; on Calcitonin receptor [11]) were 0.062 nM, 0.013 nM and 0.025 nM, respectively. The Time in data set [3] was greater than 45 h. Moreover, the remaining at 1 µM in data set [5] came to 100%.

The record behind these values is ChEMBL document CHEMBL4420076, “Amylin and calcitonin receptor agonist” (2017).
